In US10722516B2, “Use of landiolol hydrochloride in the long-term treatment of tachyarrhythmias” (AOP Orphan Pharmaceuticals AG, priority 2013, dated 2020):
Counter-ions that a name gives are not always drawn.

Assays:
[1] = target: adrenergic β1 adrenoreceptor (Homo sapiens, UniProt P08588); details: bolus followed by a continuous infusion; cited from earlier work
healthy volunteers [2] = experiment: 24 h long-term infusion study: local tolerability and safety; type: in vivo, human; details: 24 h infusion
Description: (§1) A single centre prospective, randomized, double blind, crossover, pharmacokinetic, safety and tolerability study to compare long-term infusion administration of AOP LDLL600 against esmolol in healthy volunteers was performed.
(§2) Landiolol hydrochloride lyophilized (LDLL600) comprises 600 mg landiolol hydrochloride, 600 mg mannitol, pH 6.5. The primary packing of LDLL600 is 50 ml vial, the reconstitution volume is 50 ml and the final product concentration is 12 mg/mL landiolol HCl.
(§3) 12 subjects were administered AOP LDLL600 or Esmolol (Brevibloc, 2500 mg/250 ml) in 1:1 ratio in double-blind, randomized, cross-over setting. PK, systemic cardiovascular and local tolerability and safety of the 24 h-long term infusions of three dose levels of both IMPs during each treatment period were assessed.
(§4) Landiolol was infused over 24 h in a dose of 10 μg/KG/min (2 hrs), followed by 20 μg/KG/min (2 hrs), followed by 40 μg/KG/min for 20 hrs.
(§5) Dosing algorithm was body weight divided by 20, 10 and 5 in ml/h giving 10, 20 and 40 μg/KG/min at a concentration of 12 mg/ml. No severe adverse drug reactions, mild local reactions, 1 severe local reaction (Esmolol High Dose).
(§6) Landiolol was infused over 24 h in a dose of 10, 20 and 40 μg/KG/min, i.e. 10 μg/KG/min landiolol were administered for 2 hrs, followed by 2 hrs administration of 20 μg/KG/min and further followed by 20 hrs administration of 40 μg/KG/min.

healthy volunteers [3] = experiment: 24 h long-term infusion study, AOP LDLL600 against esmolol: heart rate; type: in vivo, human
Description: as §1, §2, §3, §4, §5, §6
Post-infusion follow up measurements were performed immediately after 20 hrs administration study, i.e. 2, 4 min etc. after stop of landiolol administration.

[4] = FU Predose (end of 20 h HD, infusion stop)
[5] = FU post-infusion, 20 h 2 min (2 min after infusion stop)
[6] = FU post-infusion, 20 h 4 min (4 min after infusion stop)
[7] = FU post-infusion, 20 h 6 min (6 min after infusion stop)
[8] = FU post-infusion, 20 h 8 min (8 min after infusion stop)
[9] = FU post-infusion, 20 h 12 min (12 min after infusion stop)
[10] = FU post-infusion, 20 h 16 min (16 min after infusion stop)
[11] = FU post-infusion, 20 h 20 min (20 min after infusion stop)
[12] = FU post-infusion, 20 h 30 min (30 min after infusion stop)
[13] = FU post-infusion, 21 h (1 h after infusion stop)
[14] = FU post-infusion, 22 h (2 h after infusion stop)
[15] = FU post-infusion, 24 h (4 h after infusion stop)
[16] = FU post-infusion, 26 h (6 h after infusion stop)
[17] = HD infusion (landiolol 40, esmolol 200 μg/kg/min, after LD and MD), 2 min
[18] = HD infusion (landiolol 40, esmolol 200 μg/kg/min, after LD and MD), 3 min
[19] = HD infusion (landiolol 40, esmolol 200 μg/kg/min, after LD and MD), 4 min
[20] = HD infusion (landiolol 40, esmolol 200 μg/kg/min, after LD and MD), 6 min
[21] = HD infusion (landiolol 40, esmolol 200 μg/kg/min, after LD and MD), 8 min
[22] = HD infusion (landiolol 40, esmolol 200 μg/kg/min, after LD and MD), 12 min
[23] = HD infusion (landiolol 40, esmolol 200 μg/kg/min, after LD and MD), 16 min
[24] = HD infusion (landiolol 40, esmolol 200 μg/kg/min, after LD and MD), 20 min
[25] = HD infusion (landiolol 40, esmolol 200 μg/kg/min, after LD and MD), 30 min
[26] = HD infusion (landiolol 40, esmolol 200 μg/kg/min, after LD and MD), 60 min
[27] = HD infusion (landiolol 40, esmolol 200 μg/kg/min, after LD and MD), 90 min
[28] = HD infusion (landiolol 40, esmolol 200 μg/kg/min, after LD and MD), 2 h
[29] = HD infusion (landiolol 40, esmolol 200 μg/kg/min, after LD and MD), 4 h
[30] = HD infusion (landiolol 40, esmolol 200 μg/kg/min, after LD and MD), 8 h
[31] = HD infusion (landiolol 40, esmolol 200 μg/kg/min, after LD and MD), 12 h
[32] = HD infusion (landiolol 40, esmolol 200 μg/kg/min, after LD and MD), 16 h
[33] = HD infusion (landiolol 40, esmolol 200 μg/kg/min, after LD and MD), 20 h (end)
[34] = LD infusion (landiolol 10, esmolol 50 μg/kg/min), 2 min

Chain of adrenergic β1 adrenoreceptor (P08588 whole entry, the tested form may be a part): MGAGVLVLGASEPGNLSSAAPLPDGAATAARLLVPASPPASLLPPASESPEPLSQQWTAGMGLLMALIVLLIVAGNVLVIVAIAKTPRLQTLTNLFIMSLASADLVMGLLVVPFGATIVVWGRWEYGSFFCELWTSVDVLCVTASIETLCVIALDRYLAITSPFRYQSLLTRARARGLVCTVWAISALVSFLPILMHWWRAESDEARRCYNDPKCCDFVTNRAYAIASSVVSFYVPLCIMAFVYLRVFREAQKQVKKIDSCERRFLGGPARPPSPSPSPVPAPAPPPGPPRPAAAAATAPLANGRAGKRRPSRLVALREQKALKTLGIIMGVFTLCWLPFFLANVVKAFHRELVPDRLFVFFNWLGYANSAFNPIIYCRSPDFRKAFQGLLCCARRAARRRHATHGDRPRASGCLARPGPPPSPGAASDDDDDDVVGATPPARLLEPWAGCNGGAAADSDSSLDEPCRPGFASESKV

In the case of COC(=O)CCc1ccc(OCC(O)CNC(C)C)cc1 (stereo not drawn) [Esmolol, Esmolol hydrochloride], the onset of activity [1] is listed as no more than 2 min, the “time to 90% of steady-state beta-blockade” value [1] is listed as no more than 5 min and the “local reactions (percent of subjects)” value (healthy volunteers [2]; three dose levels) is listed as 50.0%. The “local reactions (subjects/total)” value (healthy volunteers [2]; three dose levels) was 7/14, the “severe local reaction (number)” value (healthy volunteers [2]; Esmolol High Dose (200 μg/kg/min)) was 1 and the “change of heart rate from predose, Mean (SD)” value (“change of heart rate … (SD)” for short) (healthy volunteers [3]; [4]) was 1.5 (9.05) beats per minute. The “heart rate, Mean (SD)” value (healthy volunteers [3]; [4]) was 69.1 (6.40) beats per minute, the “change of heart rate … (SD)” value (healthy volunteers [3]; [5]) was 1.4 (7.57) beats per minute and the “heart rate, Mean (SD)” value (healthy volunteers [3]; [5]) was 69.0 (4.88) beats per minute. The “change of heart rate … (SD)” value (healthy volunteers [3]; [6]) was 3.6 (8.77) beats per minute, the “heart rate, Mean (SD)” value (healthy volunteers [3]; [6]) was 71.3 (7.04) beats per minute and the “change of heart rate … (SD)” value (healthy volunteers [3]; [7]) was 5.4 (8.11) beats per minute. The “heart rate, Mean (SD)” value (healthy volunteers [3]; [7]) was 73.1 (7.89) beats per minute, the “change of heart rate … (SD)” value (healthy volunteers [3]; [8]) was 5.4 (8.10) beats per minute and the “heart rate, Mean (SD)” value (healthy volunteers [3]; [8]) was 73.1 (7.57) beats per minute. For the same compound, the “change of heart rate … (SD)” value (healthy volunteers [3]; [9]) was 7.1 (8.43) beats per minute, the “heart rate, Mean (SD)” value (healthy volunteers [3]; [9]) was 74.7 (8.62) beats per minute and the “change of heart rate … (SD)” value (healthy volunteers [3]; [10]) was 6.4 (7.44) beats per minute. The “heart rate, Mean (SD)” value (healthy volunteers [3]; [10]) was 74.0 (7.99) beats per minute, the “change of heart rate … (SD)” value (healthy volunteers [3]; [11]) was 6.8 (7.17) beats per minute and the “heart rate, Mean (SD)” value (healthy volunteers [3]; [11]) was 74.4 (7.04) beats per minute. The “change of heart rate … (SD)” value (healthy volunteers [3]; [12]) was 9.1 (8.04) beats per minute, the “heart rate, Mean (SD)” value (healthy volunteers [3]; [12]) was 76.8 (8.51) beats per minute and the “change of heart rate … (SD)” value (healthy volunteers [3]; [13]) was 5.5 (8.15) beats per minute. The “heart rate, Mean (SD)” value (healthy volunteers [3]; [13]) was 73.1 (7.50) beats per minute, the “change of heart rate … (SD)” value (healthy volunteers [3]; [14]) was 2.6 (8.02) beats per minute and the “heart rate, Mean (SD)” value (healthy volunteers [3]; [14]) was 70.2 (7.06) beats per minute. The “change of heart rate … (SD)” value (healthy volunteers [3]; [15]) was 4.5 (9.51) beats per minute, the “heart rate, Mean (SD)” value (healthy volunteers [3]; [15]) was 72.1 (7.37) beats per minute and the “change of heart rate … (SD)” value (healthy volunteers [3]; [16]) was 5.1 (10.85) beats per minute. The “heart rate, Mean (SD)” value (healthy volunteers [3]; [16]) was 72.8 (9.74) beats per minute, the “change of heart rate … (SD)” value (healthy volunteers [3]; HD Predose (end of 2 h MD)) was −3.9 (7.75) beats per minute and the “heart rate, Mean (SD)” value (healthy volunteers [3]; HD Predose (end of 2 h MD)) was 63.7 (4.86) beats per minute. For the same compound, the “change of heart rate … (SD)” value (healthy volunteers [3]; [17]) was −2.5 (8.96) beats per minute, the “heart rate, Mean (SD)” value (healthy volunteers [3]; [17]) was 65.1 (7.10) beats per minute and the “change of heart rate … (SD)” value (healthy volunteers [3]; [18]) was −3.2 (8.99) beats per minute. For the same compound, the “heart rate, Mean (SD)” value (healthy volunteers [3]; [18]) was 64.4 (4.38) beats per minute, the “change of heart rate … (SD)” value (healthy volunteers [3]; [19]) was −3.1 (8.16) beats per minute and the “heart rate, Mean (SD)” value (healthy volunteers [3]; [19]) was 64.5 (4.74) beats per minute. For the same compound, the “change of heart rate … (SD)” value (healthy volunteers [3]; [20]) was −2.8 (8.97) beats per minute, the “heart rate, Mean (SD)” value (healthy volunteers [3]; [20]) was 64.9 (4.29) beats per minute and the “change of heart rate … (SD)” value (healthy volunteers [3]; [21]) was −3.7 (10.45) beats per minute. The “heart rate, Mean (SD)” value (healthy volunteers [3]; [21]) was 63.9 (7.14) beats per minute, the “change of heart rate … (SD)” value (healthy volunteers [3]; [22]) was −2.9 (9.19) beats per minute and the “heart rate, Mean (SD)” value (healthy volunteers [3]; [22]) was 64.8 (4.39) beats per minute. For the same compound, the “change of heart rate … (SD)” value (healthy volunteers [3]; [23]) was −3.3 (8.32) beats per minute, the “heart rate, Mean (SD)” value (healthy volunteers [3]; [23]) was 64.4 (7.16) beats per minute and the “change of heart rate … (SD)” value (healthy volunteers [3]; [24]) was −0.4 (11.69) beats per minute. The “heart rate, Mean (SD)” value (healthy volunteers [3]; [24]) was 67.3 (7.26) beats per minute, the “change of heart rate … (SD)” value (healthy volunteers [3]; [25]) was −2.3 (9.26) beats per minute and the “heart rate, Mean (SD)” value (healthy volunteers [3]; [25]) was 65.4 (5.69) beats per minute. The “change of heart rate … (SD)” value (healthy volunteers [3]; [26]) was 4.9 (9.60) beats per minute, the “heart rate, Mean (SD)” value (healthy volunteers [3]; [26]) was 72.6 (6.64) beats per minute and the “change of heart rate … (SD)” value (healthy volunteers [3]; [27]) was 5.9 (8.95) beats per minute. The “heart rate, Mean (SD)” value (healthy volunteers [3]; [27]) was 73.6 (4.57) beats per minute, the “change of heart rate … (SD)” value (healthy volunteers [3]; [28]) was 6.2 (9.32) beats per minute and the “heart rate, Mean (SD)” value (healthy volunteers [3]; [28]) was 73.9 (4.55) beats per minute. The “change of heart rate … (SD)” value (healthy volunteers [3]; [29]) was 2.8 (9.60) beats per minute, the “heart rate, Mean (SD)” value (healthy volunteers [3]; [29]) was 70.4 (5.03) beats per minute and the “change of heart rate … (SD)” value (healthy volunteers [3]; [30]) was 0.3 (10.34) beats per minute. For the same compound, the “heart rate, Mean (SD)” value (healthy volunteers [3]; [30]) was 67.9 (5.95) beats per minute, the “change of heart rate … (SD)” value (healthy volunteers [3]; [31]) was 0.7 (10.94) beats per minute and the “heart rate, Mean (SD)” value (healthy volunteers [3]; [31]) was 68.4 (8.30) beats per minute. For the same compound, the “change of heart rate … (SD)” value (healthy volunteers [3]; [32]) was 0.3 (9.27) beats per minute, the “heart rate, Mean (SD)” value (healthy volunteers [3]; [32]) was 67.9 (7.49) beats per minute and the “change of heart rate … (SD)” value (healthy volunteers [3]; [33]) was 1.5 (9.05) beats per minute. For the same compound, the “heart rate, Mean (SD)” value (healthy volunteers [3]; [33]) was 69.1 (6.40) beats per minute, the “change of heart rate … (SD)” value (healthy volunteers [3]; [34]) was −0.7 (6.22) beats per minute and the “heart rate, Mean (SD)” value (healthy volunteers [3]; [34]) was 66.9 (6.28) beats per minute.
